In publication PMC11357446, “Searching for Novel HDAC6/Hsp90 Dual Inhibitors with Anti-Prostate Cancer Activity: In Silico Screening and In Vitro Evaluation” (Pharmaceuticals, 2024):
Where two headings read alike, the source gives them in different places.

Experiments:
[1] = molecular target: HDAC6 (UniProt ID: Q9UBN7); set-up: method as in ChEMBL [62]; settings: ChEMBL record on recombinant protein; ref ChEMBL [62]; read-out: HDAC6 IC50 (Standard Value); cited from earlier work
[2] = system: LNCaP prostate cancer cells; assay: Cell viability assay (PrestoBlue) on LNCaP cells; assay type: cell-based, human; settings: Homo sapiens, LNCaP, 72 h, read-out: LNCaP GI50
Description: (§1) The human prostate cancer cell line PC-3 (ATCC Cat# CRL-1435) was grown in Ham’s F12 (Biowest, Nuaillé, France) medium, while the human prostate cancer cell line LNCaP (ATCC Cat# CRL-1740) was grown in RPMI 1640 (Biowest, Nuaillé, France) medium. Both media were supplemented with 10% Fetal Bovine Serum (FBS, Gibco, Fisher Scientific Italia, Segrate, Italy), 2 mM glutamine, 100 U/mL penicillin, and 100 μg/mL streptomycin. PC-3 and LNCaP cells were maintained at 37 °C in a humidified 5% CO2 atmosphere.
(§2) PC-3 and LNCaP cells were seeded at a density of 4000 and 6000 cells/well into a 96-well plate, respectively, together with a calibration curve of known cell numbers. The following day, the cells were treated with the indicated test compounds at different concentrations starting at 75μM with 2-fold serial dilutions. Cell viability was evaluated after 72h by colorimetric MTT (PC-3) or PrestoBlue™ (LNCaP) cell viability reagents. A total of 0.5 mg/mL of thiazolyl blue tetrazolium bromide (MTT) (Sigma-Aldrich, St. Louis, MO, USA) in Ham’s F12 medium was added to the wells, and the plate was incubated at 37 °C for 2 h. Medium containing unconverted MTT was removed, and 100 μL of MTT solvent (4 mM HCl, 0.1% NP40, in isopropyl alcohol) was added to the wells in order to solubilize MTT crystals. After 15 min of incubation at room temperature, the absorbance values at 570 nm were obtained with a Multiskan FC Microplate Photometer (Thermo Fisher Scientific, Waltham, MA, USA). PrestoBlue reagent (#A13261, Thermo Fisher Scientific, Waltham, MA, USA) was added to the medium (1:10 v/v) and incubated for 1 h at 37 °C. Cell viability was calculated by quantifying PrestoBlue reduction by measuring the absorbance at 570 and 620 nm, according to the manufacturer’s protocol. The viability of untreated cells was arbitrarily set at 100%, and the concentration at which cellular growth is inhibited by 50% (GI50) was determined. Three independent experiments were performed.

[3] = molecular target: T1, HDAC6 recombinant enzyme (Homo sapiens, UniProt Q9UBN7); assay: Fluorimetric HDAC6 assay; assay type: biochemical; settings: singlicate
T1 sequence (Q9UBN7 1-1215): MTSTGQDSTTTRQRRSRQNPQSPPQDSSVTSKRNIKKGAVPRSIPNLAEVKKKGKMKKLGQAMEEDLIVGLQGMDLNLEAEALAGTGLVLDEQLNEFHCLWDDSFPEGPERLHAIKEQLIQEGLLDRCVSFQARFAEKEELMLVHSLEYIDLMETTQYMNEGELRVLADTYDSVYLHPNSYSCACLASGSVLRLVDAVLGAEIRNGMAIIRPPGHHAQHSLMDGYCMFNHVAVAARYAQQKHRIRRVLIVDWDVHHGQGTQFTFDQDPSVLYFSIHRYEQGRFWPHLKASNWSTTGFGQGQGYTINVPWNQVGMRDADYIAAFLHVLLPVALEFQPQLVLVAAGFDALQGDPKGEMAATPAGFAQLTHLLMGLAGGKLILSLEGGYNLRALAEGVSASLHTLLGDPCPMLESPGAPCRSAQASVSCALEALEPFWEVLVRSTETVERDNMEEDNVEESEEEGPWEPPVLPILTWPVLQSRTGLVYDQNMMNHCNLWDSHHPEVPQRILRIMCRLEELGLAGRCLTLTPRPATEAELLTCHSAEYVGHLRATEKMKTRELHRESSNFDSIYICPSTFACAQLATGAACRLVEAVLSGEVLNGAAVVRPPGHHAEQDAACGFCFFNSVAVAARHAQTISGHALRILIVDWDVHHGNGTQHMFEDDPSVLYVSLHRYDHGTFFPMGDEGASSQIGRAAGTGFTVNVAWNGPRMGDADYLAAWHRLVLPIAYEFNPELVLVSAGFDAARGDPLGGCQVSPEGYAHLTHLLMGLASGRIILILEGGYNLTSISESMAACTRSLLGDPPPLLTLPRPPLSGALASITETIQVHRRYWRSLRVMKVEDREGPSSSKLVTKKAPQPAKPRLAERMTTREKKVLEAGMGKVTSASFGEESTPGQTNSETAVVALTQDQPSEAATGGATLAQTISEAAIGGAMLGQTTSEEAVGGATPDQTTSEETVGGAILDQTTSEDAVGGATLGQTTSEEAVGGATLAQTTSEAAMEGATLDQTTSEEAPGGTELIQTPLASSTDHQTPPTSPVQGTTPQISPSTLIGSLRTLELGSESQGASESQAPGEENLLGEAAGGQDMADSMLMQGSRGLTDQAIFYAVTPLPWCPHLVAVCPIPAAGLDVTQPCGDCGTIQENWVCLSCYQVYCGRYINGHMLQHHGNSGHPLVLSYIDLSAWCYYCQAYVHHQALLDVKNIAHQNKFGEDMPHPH
Description: In vitro assessments of compounds on the HDAC6 enzyme were performed, as described in our previous works. […] The blank employed for curve fitting was evaluated on a solution of the buffer containing a concentration of […] of DMSO. IC50 values were calculated by using the GraphPad Prism 4 program based on a sigmoidal dose–response equation.

[4] = system: PC-3 prostate cancer cells; assay: Cell viability assay (MTT) on PC-3 cells; assay type: cell-based, human; settings: Homo sapiens, PC-3, 72 h, read-out: PC-3 GI50
Description: as §1, §2

[5] = system: acetylated tubulin (Ac-Tub) in LNCaP cells; assay: Western blot of acetylated α-Tubulin in LNCaP cells; assay type: cell-based, human; settings: 24 h at GI50 concentration, normalized with Tubulin
Description: To assess whether the observed antiproliferative activity of the selected compounds was a consequence of HDAC6-targeting, we examined the effect of the cell treatments on the expression levels of acetylated tubulin (Ac-Tub), a well-known HDAC6 target. LNCaP and PC-3 cells were treated with the tested compounds at their GI50 concentrations, and SDS-PAGE and western blot were performed. In addition, the acetylation levels of histone H3, which are mainly regulated by HDAC1, were also evaluated in order to exclude potential class I-HDAC off-target activities. We used Tubastatin-A and Geldanamycin as reference controls for cellular effects resulting from HDAC6- and Hsp90-inhibition, respectively. The results in Figure 2 show a significant increase in α-Tubulin acetylation in LNCaP cells after treatments with compounds 8, 11 and 18. Indeed, these compounds triggered a 2.9-, 5.1-, and 2.5-fold increase, respectively, compared to the control (DMSO). […].
Figure 2 Western blot analysis and relative quantification of the expression levels of acetylated-Tubulin (Ac-TUB), acetylated H3 (Ac-H3), and HSP70 in LNCaP (A,B) and PC-3 (C,D) cells treated for 24 h at GI50 concentration. Tubastatin-A was used as HDAC6-specific positive control, Geldanamycin (GELDA) as HSP90-specific positive control, and SAHA as pan-HDAC inhibitor. Protein expression was normalized with Tubulin levels (Ac-TUB and HSP70) or total H3 (Ac-H3). Quantification is reported as fold change in treated cells versus DMSO control (CTR), arbitrarily set at 1 (one sample t-test p-values: * p < 0.05, ** p < 0.01, *** p < 0.001, **** p < 0.0001; n = 3).
Cell treatment. PC-3 and LNCaP cells were grown in 12-well tissue-culture plates and treated with test compounds at the evaluated GI50 concentration for each candidate inhibitor for 24 h. DMSO was used as a negative control, while Tubastatin-A and Geldanamycin were used as positive controls for HDAC6 and Hsp90 inhibition, respectively. Vorinostat (SAHA) was used as a pan-HDACi control. […] Protein quantitation was performed with Pierce Detergent Compatible Bradford Assay (#23246, Thermo Fisher Scientific, MA, USA), and equivalent amounts of cellular extracts were resolved by SDS-PAGE, transferred to PVDF or Nitrocellulose membrane with Trans-Blot Turbo Transfer System (Bio-Rad, Hercules, CA, USA), and immunoblotted with the following primary antibodies, diluted 1:1000 in 1× TBS with 1 mg/mL BSA: Anti-Histone H3 (#PA5-16183, Invitrogen, Thermo Fisher Scientific, MA, USA), Anti-acetylated histone H3 (#sc-518011, Santa Cruz Biotechnology, Inc., Dallas, TX, USA), Anti-Tubulin (#E-AB-20073, Elabscience, Houston, TX, USA), Anti-acetylated α-tubulin (#sc-23950, Santa Cruz), and Anti-HSP70 (#4872S, Cell Signaling Technology, Inc., Danvers, MA, USA). […]

[6] = 72 h treatment, PrestoBlue, mean of three independent experiments ± SEM
[7] = 72 h treatment, MTT, mean of three independent experiments ± SEM

Structure (SMILES) | IC50 [1] [µM] | further results
CC(C)c1nc2ccccc2n1Cc1ccc(C(=O)NO)cc1 [CHEMBL3926575] | 0.047 | –
C[C@H](CN1CCOCC1)NC(=O)c1ccc(-c2noc(C(F)(F)F)n2)cc1F [CHEMBL3692681] | 3.2 | –
N#Cc1ccc(NC(=O)c2cccc(-c3noc(C(F)(F)F)n3)c2)c(O)c1 [Compound 4] | – | GI50 [2, 6]: 9.5 ± 0.7 µM; IC50 [3]: 17 µM; GI50 [4, 7]: 9.5 ± 0.5 µM
Cc1c(C)n(Cc2ccc(C(=O)NO)cc2)c2ccccc12 [CHEMBL3971436] | 0.00408 | –
CC(C)CN1CC(=O)N2Cc3c(c4ccccc4n3Cc3ccc(C(=O)NO)cc3)CC2C1=O (stereo not shown) [CHEMBL4284297] | 0.00378 | –
O=C(NC1CCCCC1O)c1ccc(-c2noc(C(F)(F)F)n2)cc1 (stereo not shown) [CHEMBL3692597] | 7.1 | –
C[C@H](CN1CCCCC1)NC(=O)c1ccc(-c2noc(C(F)(F)F)n2)cc1F [CHEMBL3692663] | 3 | –
O=C(Cc1ccc(-c2noc(C(F)(F)F)n2)cc1)N1CCOCC1 [CHEMBL3688148] | 5.5 | –
O=C(/C=C/c1ccc2c(c1)C(=O)N(Cc1ccccc1)C2)NO [CHEMBL247217] | 0.23 | –
O=C(NO)c1ccc(CN2C(=O)CNC(=O)[C@H]2Cc2c[nH]c3ccccc23)cc1 [CHEMBL481719] | 0.11 | –
N#Cc1cc(NC(=O)c2ccc(-c3noc(C(F)(F)F)n3)cc2)ccn1 [CHEMBL3692609] | 6.1 | –
Cc1cc(NC(=O)c2ccc(-c3noc(C(F)(F)F)n3)cc2)cc(C)n1 [CHEMBL3692604] | 5.3 | –
CC(C)(C)c1ccc(CN2Cc3ccc(/C=C/C(=O)NO)cc3C2=O)cc1 [CHEMBL247218] | 0.99 | –
CC(C)(C)c1cc2ccccc2n1Cc1ccc(C(=O)NO)cc1 [CHEMBL4468860] | 2 | –
CN1CC(=O)N2Cc3c(c4ccccc4n3Cc3ccc(C(=O)NO)cc3)CC2C1=O (stereo not shown) [CHEMBL4292944] | 0.0136 | –
COC1=C2C[C@@H](C)C[C@H](OC)[C@H](O)[C@@H](C)/C=C(\C)[C@H](OC(N)=O)[C@@H](OC)/C=C\C=C(/C)C(=O)NC(=CC1=O)C2=O [Geldanamycin] | – | GI50 [2, 6]: 0.05 ± 0.02 µM; GI50 [4, 7]: 0.03 ± 0.02 µM
O=C(Nc1ccncc1)c1ccc(-c2noc(C(F)(F)F)n2)cc1 [CHEMBL3692583] | 2.1 | –
O=C(Nc1cccnc1)c1ccc(-c2noc(C(F)(F)F)n2)cc1 [CHEMBL3692584] | 4.8 | –
O=C(CCCCCCC(=O)Nc1ccccc1)NO [SAHA, Vorinostat] | – | GI50 [2]: 1.3 ± 0.3 µM; GI50 [4]: 1.9 ± 0.2 µM
COc1cc(NC(=O)c2ccc(-c3noc(C(F)(F)F)n3)cc2)ccn1 [CHEMBL3692603] | 8.3 | –
C[C@H](CN1CCOCC1)NC(=O)c1ccc(-c2noc(C(F)(F)F)n2)cc1 [CHEMBL3692680] | 6.7 | –
Cc1cc(NC(=O)c2ccc(-c3noc(C(F)(F)F)n3)cc2F)cc(C)n1 [CHEMBL3692624] | 2.5 | –
O=C(Nc1ccnc(C(F)(F)F)c1)c1ccc(-c2noc(C(F)(F)F)n2)cc1 [CHEMBL3692610] | 8.6 | –
O=C(NCc1ccc(CN2CCOCC2)cc1)c1ccc(-c2noc(C(F)(F)F)n2)cc1 [CHEMBL3692580] | 5.7 | –
CN1CCc2c(c3ccccc3n2Cc2ccc(C(=O)NO)cc2)C1 [Tubastatin-A] | – | GI50 [2, 6]: 5.9 ± 1.5 µM; α-Tubulin acetylation, fold increase compared to the control (DMSO) [5]: 3.3 fold; GI50 [4, 7]: 11.1 ± 1.6 µM
